Values after ≈ are worked out from the molar mass of the structure shown.
Legend:
physchem = conditions: kinetic from dmso stock
human GPR119 (hGPR119) = target: T1, human GPR119 (hGPR119) (Homo sapiens, UniProt Q8TDV5); test: Specific (agonistic) activity in vitro, cAMP increase (Lance Ultra cAMP kit) in CHO-K1 cells expressing hGPR119; assay type: cell-based; conditions: CHO-K1 hGPR119, cAMP
T1 construct: expressed in transfected cells; host or cells: CHO-K1 (Chinese hamster ovary)
T1 sequence (Q8TDV5 1-335): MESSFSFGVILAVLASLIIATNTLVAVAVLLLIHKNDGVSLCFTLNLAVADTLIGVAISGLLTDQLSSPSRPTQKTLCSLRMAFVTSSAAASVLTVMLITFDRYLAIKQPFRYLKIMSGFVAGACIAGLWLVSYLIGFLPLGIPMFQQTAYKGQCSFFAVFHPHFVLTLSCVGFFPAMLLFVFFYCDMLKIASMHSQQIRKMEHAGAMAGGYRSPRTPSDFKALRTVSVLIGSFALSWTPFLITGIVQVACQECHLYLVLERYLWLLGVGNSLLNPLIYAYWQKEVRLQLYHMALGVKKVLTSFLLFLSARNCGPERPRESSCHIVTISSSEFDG
Experimental: Specific activity was evaluated using an immortalized Chinese hamster ovary cell line CHO-K1 steadily expressed human GPR119 (hGPR119). The cells (10^7 ml^−1) were cultured in Dulbecco's modified Eagle medium (DMEM) modified with 10% fetal bovine serum (FBS), revolved continuously at 50 rpm at 37°C in 8% CO2 for 3–4 days. Lance Ultra cAMP kit (Perkin Elmer, Waltham, MA, USA) was chosen as the experimental platform ([13]). The experiments were performed in accordance to the manufacturer's instructions. The agonistic activity of the test compounds was estimated by the increase in intracellular cAMP concentration, assuming the hGPR119 activation is followed by the activation of cellular adenylate cyclase, which increases intracellular cAMP levels ([4], [14]). Known agonists of hGPR119 receptors were used as positive controls to determine the maximal possible effect (MPE). The activity of test compounds was expressed in terms of median effective concentration (EC50).

[1] = Biotransformation in vitro, microsomal stability (human); assay type: in vitro ADME; conditions: for ER / CLh: Human microsomal fraction; for CLh: in mL/min/kg (unit assumed); for microsomal CLint at 0.5 μM / half-life at 0.5 μM: liver microsomal fraction; for half-life at 0.5 μM: NADPH, read-out: t1/2, min
Experimental: (§1) The metabolism of the compounds was studied in commercially available microsomal fractions derived from human and rat hepatocytes. Test compounds (0.5 μM) were incubated with microsomal fractions in the presence of NADPH during 30 min in a shaker at 37°C. Reactions were stopped at 0, 5, 10, 15, and 30 min by adding acetonitrile. After proteins precipitation, the remaining amount of the test compound in the supernatant was detected with high performance liquid chromatography tandem-mass spectrometry (HPLC-MS/MS) method using Agilent 1260 liquid chromatograph (Agilent Technologies, Santa Clara, CA, USA) and a QTRAP6500 triple quadrupole mass spectrometer with a TurboIonSpray electro-spraying module (ABSciex, Foster City, CA, USA) ([15]). Incubation was performed twice, with at least 2 measurements for each replicate (n ≥ 3). The half-life (T1/2), the clearance in vitro (CLint) and the remaining amount of substance (% of initial quantity) were calculated.

[2] = Biotransformation in vitro, microsomal stability (rat); assay type: in vitro ADME; conditions: for ER / CLh: Rat microsomal fraction; for CLh: in mL/min/kg (unit assumed); for microsomal CLint at 0.5 μM / half-life at 0.5 μM: liver microsomal fraction; for half-life at 0.5 μM: NADPH, read-out: t1/2, min
Experimental: as §1

[3] = Biotransformation in vitro, microsomal stability (mouse); assay type: in vitro ADME
Experimental: as §1

CYP1A2 = target: T2, CYP1A2 (Homo sapiens, UniProt P05177); test: CYP inhibition, Vivid CYP450 Screening Kit; assay type: in vitro ADME; conditions: 0.0046 to 10 μM tested
T2 construct: purchased Invitrogen Corporation, Carlsbad, CA, USA
T2 sequence (P05177 1-516): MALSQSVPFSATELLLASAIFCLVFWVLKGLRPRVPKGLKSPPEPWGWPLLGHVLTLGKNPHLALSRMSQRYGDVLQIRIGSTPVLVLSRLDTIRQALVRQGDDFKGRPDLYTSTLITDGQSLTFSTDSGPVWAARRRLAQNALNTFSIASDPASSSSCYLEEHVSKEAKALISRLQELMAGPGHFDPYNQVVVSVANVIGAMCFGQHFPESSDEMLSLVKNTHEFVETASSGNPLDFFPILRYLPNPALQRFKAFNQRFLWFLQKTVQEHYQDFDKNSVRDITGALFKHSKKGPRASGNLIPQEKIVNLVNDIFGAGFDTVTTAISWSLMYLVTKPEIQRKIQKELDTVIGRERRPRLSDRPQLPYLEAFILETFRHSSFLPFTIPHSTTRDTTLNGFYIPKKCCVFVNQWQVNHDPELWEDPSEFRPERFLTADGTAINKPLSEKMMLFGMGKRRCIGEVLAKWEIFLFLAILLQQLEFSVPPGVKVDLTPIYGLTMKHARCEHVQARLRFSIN
Experimental: (§2) Briefly, the reaction was initiated by adding NADP^+ and a substrate converted to fluorescent derivates by specific CYP isozyme. The reaction was terminated by adding 1M Tris. The fluorescence of the reaction product, which was proportional to CYP isozyme activity, was measured. […] The minimal signal was defined as the signal obtained without enzyme incubation. The inhibitory action of test compounds on the CYP isozymes was expressed in terms of median inhibitory concentration (IC50).

CYP2C19 = target: T3, CYP2C19 (Homo sapiens, UniProt P33261); test: CYP inhibition, Vivid CYP450 Screening Kit; assay type: in vitro ADME; conditions: 0.0046 to 10 μM tested
T3 construct: purchased Invitrogen Corporation, Carlsbad, CA, USA
Experimental: as §2

CYP2C9 = target: T4, CYP2C9 (Homo sapiens, UniProt P11712); test: CYP inhibition, Vivid CYP450 Screening Kit; assay type: in vitro ADME; conditions: 0.0046 to 10 μM tested
T4 construct: purchased Invitrogen Corporation, Carlsbad, CA, USA
Experimental: as §2

CYP2D6 = target: T5, CYP2D6 (Homo sapiens, UniProt P10635); test: CYP inhibition, Vivid CYP450 Screening Kit; assay type: in vitro ADME; conditions: 0.0046 to 10 μM tested
T5 construct: purchased Invitrogen Corporation, Carlsbad, CA, USA
Experimental: as §2

CYP3A4 = target: T6, CYP3A4 (Homo sapiens, UniProt P08684); test: CYP inhibition, Vivid CYP450 Screening Kit; assay type: in vitro ADME; conditions: 0.0046 to 10 μM tested
T6 construct: purchased Invitrogen Corporation, Carlsbad, CA, USA
Experimental: as §2

hERG potassium channels = target: T7, hERG potassium channels (Homo sapiens, UniProt Q12809); test: Cardiac toxicity, Predictor hERG fluorescence polarization binding
T7 construct: purchased Invitrogen Corporation, Carlsbad, CA, USA
Experimental: Cardiac toxicity was evaluated by estimating the influence of each substance on hERG potassium channels using the in vitro test system Invitrogen® PredictorTM hERG (Invitrogen Corporation, Carlsbad, CA, USA), containing Predictor hERG membrane preparations, fluorescent tracer stock solution and an assay buffer solution. Experimental procedures were conducted in accordance with the PredictorTM hERG test system's manufacturer instructions. Assays were performed in 384-well microplates. Each well contained 5 μL aliquot of each concentration of test compound, 10 μL of (2X) membrane preparation and 5 μL of working tracer solution. The cumulative reaction volume was 20 μl with 1% of DMSO ([19]). All procedures were performed at 4 replicates for each concentration. The plate was allowed to incubate at room temperature for at least 1 h prior to fluorescence polarization measurements performed with a microplate reader Infinite M1000 PRO (Tecan).

[4] = tested on: rats with streptozotocin-nicotinamide (STZ-NA) induced T2D; test: Hypoglycemic activity after continuous (28 days) oral administration in T2D rat model, OGTT; assay type: in vivo; conditions: daily oral ZB-16 1 mg/kg or sitagliptin 10 mg/kg for 28 days, STZ-NA T2D
Experimental: Procedures were performed in 40 female Wistar rats weighing 250–280 g. Streptozotocin-nicotinamide-induced rat model of T2D was used ([24], [25]). Briefly, streptozotocin (Sigma, St. Louis, MO, USA) was administered i.p. to overnight fasted rats (65 mg/kg in 100 mmol/l citrate buffer, Ph 4.5). Nicotinamide (Sigma, St. Louis, MO, USA) (230 mg/kg) dissolved in saline was administered i.p. 15 min before streptozotocin. STZ-NA T2D had been confirmed 72 h after in rats with blood glucose levels in a range 9–14 mmol/l measured in fasting (6 h) conditions. […] Following the continuous oral administration of sitagliptin (10 mg/kg), ZB-16 (1 mg/kg) or saline during 28 days STZ-NA T2D confirmation the fasting blood glucose levels were measured, and oral glucose tolerance test (OGTT) was performed. For OGTT rats received an oral dose of […] glucose dissolved in saline; blood glucose levels were monitored every 30 min for 2 h after glucose administration. Sitagliptin dose was chosen in accordance with published data ([26]).

[5] = Britton-Robinson universal buffer, pH 2, aqueous buffer
[6] = Britton-Robinson universal buffer, pH 4, aqueous buffer
[7] = Britton-Robinson universal buffer, pH 7, aqueous buffer

T7 sequence (Q12809 whole entry): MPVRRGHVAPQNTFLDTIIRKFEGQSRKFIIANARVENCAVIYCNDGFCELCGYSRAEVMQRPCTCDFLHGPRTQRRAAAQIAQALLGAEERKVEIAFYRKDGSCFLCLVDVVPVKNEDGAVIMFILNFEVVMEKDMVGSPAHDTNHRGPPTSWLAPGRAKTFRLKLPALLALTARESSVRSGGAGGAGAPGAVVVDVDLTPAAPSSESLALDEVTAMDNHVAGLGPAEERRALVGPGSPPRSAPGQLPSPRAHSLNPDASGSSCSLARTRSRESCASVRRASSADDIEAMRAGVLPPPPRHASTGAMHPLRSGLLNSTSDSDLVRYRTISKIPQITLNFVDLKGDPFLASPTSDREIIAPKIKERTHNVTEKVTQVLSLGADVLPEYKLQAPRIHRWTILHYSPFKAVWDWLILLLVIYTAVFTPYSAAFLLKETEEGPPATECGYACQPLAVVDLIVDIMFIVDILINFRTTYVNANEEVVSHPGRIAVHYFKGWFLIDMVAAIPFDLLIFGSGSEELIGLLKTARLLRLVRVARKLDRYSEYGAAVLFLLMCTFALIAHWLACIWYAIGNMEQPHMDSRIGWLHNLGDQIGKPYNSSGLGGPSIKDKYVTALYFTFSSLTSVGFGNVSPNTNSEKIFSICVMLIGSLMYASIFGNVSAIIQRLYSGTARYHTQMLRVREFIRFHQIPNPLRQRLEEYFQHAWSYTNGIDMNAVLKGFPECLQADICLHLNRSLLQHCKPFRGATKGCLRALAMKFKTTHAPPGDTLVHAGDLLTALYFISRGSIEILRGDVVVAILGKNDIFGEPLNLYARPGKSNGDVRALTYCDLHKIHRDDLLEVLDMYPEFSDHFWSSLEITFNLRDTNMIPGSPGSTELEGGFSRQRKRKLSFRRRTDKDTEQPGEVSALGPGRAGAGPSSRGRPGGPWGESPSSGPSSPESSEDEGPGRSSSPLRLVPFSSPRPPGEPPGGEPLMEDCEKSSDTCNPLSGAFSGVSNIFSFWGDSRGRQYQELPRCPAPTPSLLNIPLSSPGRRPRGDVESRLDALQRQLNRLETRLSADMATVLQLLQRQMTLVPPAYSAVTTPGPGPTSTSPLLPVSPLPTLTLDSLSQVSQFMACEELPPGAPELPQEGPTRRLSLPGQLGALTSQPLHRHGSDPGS
T5 sequence (P10635 whole entry): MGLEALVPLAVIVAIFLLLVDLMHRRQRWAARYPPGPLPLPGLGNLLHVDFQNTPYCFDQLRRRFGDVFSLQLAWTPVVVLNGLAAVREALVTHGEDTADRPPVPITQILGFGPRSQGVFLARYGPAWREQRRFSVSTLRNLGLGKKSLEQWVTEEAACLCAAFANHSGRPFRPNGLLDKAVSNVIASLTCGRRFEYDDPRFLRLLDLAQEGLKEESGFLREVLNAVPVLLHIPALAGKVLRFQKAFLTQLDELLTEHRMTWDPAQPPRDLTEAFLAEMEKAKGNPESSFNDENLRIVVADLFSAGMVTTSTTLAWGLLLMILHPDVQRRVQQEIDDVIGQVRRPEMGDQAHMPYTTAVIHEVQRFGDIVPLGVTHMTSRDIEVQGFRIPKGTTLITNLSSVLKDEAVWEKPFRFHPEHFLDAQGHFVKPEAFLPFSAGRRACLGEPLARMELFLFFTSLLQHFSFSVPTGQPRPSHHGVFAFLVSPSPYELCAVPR
T4 sequence (P11712 whole entry): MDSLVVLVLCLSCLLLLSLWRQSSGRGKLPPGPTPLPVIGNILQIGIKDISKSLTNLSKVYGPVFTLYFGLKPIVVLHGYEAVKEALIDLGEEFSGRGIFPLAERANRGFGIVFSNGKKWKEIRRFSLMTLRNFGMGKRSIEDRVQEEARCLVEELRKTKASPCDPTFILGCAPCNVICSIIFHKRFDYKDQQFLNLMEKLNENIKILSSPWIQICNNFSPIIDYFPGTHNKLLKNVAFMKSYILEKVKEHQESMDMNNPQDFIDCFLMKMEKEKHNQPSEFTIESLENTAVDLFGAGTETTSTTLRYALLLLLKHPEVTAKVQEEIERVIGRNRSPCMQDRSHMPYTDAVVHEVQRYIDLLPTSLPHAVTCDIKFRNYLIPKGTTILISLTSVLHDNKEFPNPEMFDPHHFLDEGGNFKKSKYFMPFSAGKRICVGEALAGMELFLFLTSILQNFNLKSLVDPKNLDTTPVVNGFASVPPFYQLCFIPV
T3 sequence (P33261 whole entry): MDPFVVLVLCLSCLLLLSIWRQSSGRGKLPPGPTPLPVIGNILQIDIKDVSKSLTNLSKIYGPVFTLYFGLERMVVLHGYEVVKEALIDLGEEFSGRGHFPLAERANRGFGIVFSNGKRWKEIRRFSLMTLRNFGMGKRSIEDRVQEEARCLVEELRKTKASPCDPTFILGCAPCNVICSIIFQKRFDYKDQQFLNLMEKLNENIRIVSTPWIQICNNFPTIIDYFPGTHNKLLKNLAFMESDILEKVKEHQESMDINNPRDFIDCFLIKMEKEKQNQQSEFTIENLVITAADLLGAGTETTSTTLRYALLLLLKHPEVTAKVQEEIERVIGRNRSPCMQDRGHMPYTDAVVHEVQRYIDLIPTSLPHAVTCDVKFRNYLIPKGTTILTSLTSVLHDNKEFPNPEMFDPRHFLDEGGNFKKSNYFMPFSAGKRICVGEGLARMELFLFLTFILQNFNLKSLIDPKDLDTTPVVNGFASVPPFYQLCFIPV
T6 sequence (P08684 whole entry): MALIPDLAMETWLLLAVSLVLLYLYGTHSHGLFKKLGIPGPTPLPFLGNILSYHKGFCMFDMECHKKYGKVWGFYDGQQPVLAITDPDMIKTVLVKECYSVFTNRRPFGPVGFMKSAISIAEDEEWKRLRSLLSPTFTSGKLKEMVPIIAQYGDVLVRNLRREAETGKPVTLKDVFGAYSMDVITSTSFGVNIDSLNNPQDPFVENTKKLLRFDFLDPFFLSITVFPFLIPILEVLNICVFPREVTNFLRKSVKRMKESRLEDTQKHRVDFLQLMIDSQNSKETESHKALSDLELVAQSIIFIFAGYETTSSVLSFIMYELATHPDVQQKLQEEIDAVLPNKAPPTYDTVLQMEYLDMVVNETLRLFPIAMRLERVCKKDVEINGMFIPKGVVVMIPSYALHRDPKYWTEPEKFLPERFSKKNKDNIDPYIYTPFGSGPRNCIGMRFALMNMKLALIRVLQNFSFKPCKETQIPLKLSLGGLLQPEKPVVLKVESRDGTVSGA

Row | Structure (SMILES) | EC50 (human GPR119 (hGPR119)) | solubility (physchem; [5]) | solubility (physchem; [6]) | solubility (physchem; [7]) | ER [1] | CLh [1] | microsomal CLint at 0.5 μM [1] | half-life at 0.5 μM [1] | ER [2] | CLh [2] | microsomal CLint at 0.5 μM [2] | half-life at 0.5 μM [2] | further results
1 | CC/C(=C(/CC)c1ccc(O)cc1)c1ccc(O)cc1 [Diethylstilbestrol, reference compound] | – | – | – | – | – | – | – | – | – | – | – | – | Solubility (μM) UB, 2% DMSO pH 2 (pH 2): 15 μM; Solubility (μM) UB, 2% DMSO pH 4 (pH 4): 14 μM; Solubility (μM) UB, 2% DMSO pH 7 (pH 7): 14 μM; solubility (physchem; pH 2, aqueous buffer): 12 µM (≈ 3.22 µg/mL); solubility (physchem; pH 4, aqueous buffer): 10 µM (≈ 2.68 µg/mL); solubility (physchem; pH 7, aqueous buffer): 12 µM (≈ 3.22 µg/mL)
2 | CCN1C(=O)c2ccccc2S(=O)(=O)c2ccc(C(=O)NCCc3ccc(Cl)cc3)cc21 [C530-0315] | 71.3 nM | – | – | – | – | – | – | – | – | – | – | – | –
3 | O=S1(=O)COc2cc(-c3ccc(OCC4CCN(CC(F)(F)F)CC4)c(F)c3)ccc21 [ZB-18] | 63.5 nM | 25 µM (≈ 11.5 µg/mL) | < 3 µM | < 3 µM | – | – | – | – | – | – | – | – | –
4 | CC(C)OC(=O)N1CCC(COc2ccc(-c3ccc4c(c3)OCS4(=O)=O)cc2F)CC1 [ZB-17] | 12.5 nM | < 3 µM | < 3 µM | < 3 µM | – | – | – | – | – | – | – | – | –
5 | CC(C)(C)OC(=O)N1CCC(COc2ccc(-c3ccc4c(c3)OCS4(=O)=O)cn2)CC1 [ZB-19] | 11 nM | < 3 µM | < 3 µM | < 3 µM | 0.95 | 20.66 | 1110 µL/min/mg | 2.5 min | 0.81 | 44.29 | 126 µL/min/mg | 21.9 min | –
6 | CCN1C(=O)c2ccccc2S(=O)(=O)c2ccc(C(=O)NCc3ccc(F)cc3)cc21 [C530-0339] | 10700 nM | – | – | – | – | – | – | – | – | – | – | – | –
7 | CC(C)(C)OC(=O)N1CCC(COc2ccc(-c3ccc4c(c3)OCS4(=O)=O)cc2F)CC1 [ZB-09] | – | < 3 µM | < 3 µM | < 3 µM | 0.94 | 20.44 | 666 µL/min/mg | 4.16 min | 0.74 | 40.97 | 89.2 µL/min/mg | 31.1 min | EC50 (human GPR119 (hGPR119); values of the text): 4 nM; CLh ([3]; Mouse microsomal fraction): 84.06; ER ([3]; Mouse microsomal fraction): 0.93; microsomal CLint at 0.5 μM ([3]; liver microsomal fraction): 324 µL/min/mg; half-life at 0.5 μM ([3]; liver microsomal fraction, read-out: t1/2, min): 8.57 min
8 | O=S1(=O)COc2cc(-c3ccc(OCC4CCN(c5ncc(Cl)cn5)CC4)nc3)ccc21 [ZB-20] | 29.3 nM | < 3 µM | < 3 µM | < 3 µM | 0.76 | 16.57 | 68 µL/min/mg | 40.8 min | 0.41 | 22.53 | 21.2 µL/min/mg | 131 min | EC50 (human GPR119 (hGPR119); values of the text): 29 nM; IC50 (CYP1A2): > 10000 nM; IC50 (CYP2C19): > 10000 nM; IC50 (CYP2C9): > 10000 nM; IC50 (CYP2D6): > 10000 nM; IC50 (CYP3A4): > 10000 nM; Average polarization mP (n = 4) (hERG potassium channels; 1 μM): 261 mP; Unbound hERG % (hERG potassium channels; 1 μM): 89%; Average polarization mP (n = 4) (hERG potassium channels; 10 μM): 263 mP; Unbound hERG % (hERG potassium channels; 10 μM): 91%
9 | N[C@@H](CC(=O)N1CCn2c(nnc2C(F)(F)F)C1)Cc1cc(F)c(F)cc1F [sitagliptin, reference compound] | – | – | – | – | – | – | – | – | – | – | – | – | blood glucose levels [4]: reduction

From article PMC6156125, “Chemistry and Hypoglycemic Activity of GPR119 Agonist ZB-16” (Frontiers in Endocrinology, 2018)
